ChEMBL document CHEMBL1201862, “PubChem BioAssay data set” (2004)
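These data come from cells grown in 96-well plates and exposed to compound for 48 hours at five concentrations. The concentration for 50% growth inhibition is given as GI50.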 The source made the active and inactive calls. No stated cut-off is given here; in the data, active = GI50 up to about 1.1 µM and inactive = higher.

Columns and labels:
Assay in all cases: inhibition of tumour cell growth, NCI panel, 48 h
SF-295 = tested on: SF-295
HCT-116 = tested on: HCT-116
SF-539 = tested on: SF-539
U-251 = tested on: U-251
SK-OV-3 = tested on: SK-OV-3
SF-268 = tested on: SF-268
OVCAR-3 = tested on: OVCAR-3
SNB-75 = tested on: SNB-75
UACC-62 = tested on: UACC-62
NCI-H23 = tested on: NCI-H23
M14 = tested on: M14
NCI-H522 = tested on: NCI-H522
MDA-MB-231 = tested on: MDA-MB-231
T47D = tested on: T47D
Malme-3M = tested on: Malme-3M
HT-29 = tested on: HT-29
SK-MEL-5 = tested on: SK-MEL-5
PC-3 = tested on: PC-3
MCF7 = tested on: MCF7
OVCAR-4 = tested on: OVCAR-4

Measured: GI50

O=c1c2c(nc3[nH]ccn13)CCCC2
inactive: SF-295 > 10 µM | HCT-116 > 10 µM | SF-539 > 10 µM | U-251 > 10 µM | SK-OV-3 > 10 µM | SF-268 > 10 µM | OVCAR-3 > 10 µM | SNB-75 > 10 µM | UACC-62 > 10 µM | NCI-H23 > 10 µM | M14 > 10 µM | NCI-H522 > 10 µM | MDA-MB-231 > 10 µM | T47D > 10 µM | Malme-3M > 10 µM | HT-29 > 10 µM | SK-MEL-5 > 10 µM | PC-3 > 10 µM | MCF7 > 10 µM | OVCAR-4 > 10 µM
